Experimental data: ChEMBL document CHEMBL5055664, “A Novel Anticancer Stem Cell Compound Derived from Pleuromutilin Induced Necroptosis of Melanoma Cells” (J Med Chem, 2021)
Values after ≈ are worked out from the molar mass of the structure shown. Active and inactive are the calls of the source. No cut-off for these calls is given here.

Key:
B16-F10 [1] = assay: Cytotoxicity against mouse B16-F10 cells assessed as inhibition of cell growth measured after 72 hrs by MTT assay; assay type: functional, cell-based; settings: B16-F10, 72 h
A-375 [2] = assay: Cytotoxicity against human A-375 cells assessed as inhibition of cell growth measured after 72 hrs by MTT assay; assay type: functional, cell-based; settings: A-375, 72 h
4T1 = assay: Cytotoxicity against mouse 4T1 cells assessed as inhibition of cell growth measured after 72 hrs by MTT assay; assay type: functional, cell-based; settings: 4T1, 72 h
Staphylococcus aureus = assay: Antimicrobial activity against Staphylococcus aureus assessed as bacterial growth inhibition; assay type: functional
Escherichia coli = assay: Antimicrobial activity against Escherichia coli assessed as bacterial growth inhibition; assay type: functional
Bacillus subtilis = assay: Antimicrobial activity against Bacillus subtilis assessed as bacterial growth inhibition; assay type: functional
Kasumi 1 = assay: cells; settings: Homo sapiens, Kasumi 1, 72 h
CT26 = assay: cells; settings: Mus musculus, CT26, 72 h
HCT-116 = assay: cells; settings: Homo sapiens, HCT-116, 72 h
B16-F10 [3] = assay: Anticancer activity against mouse B16-F10 cancer stem cells assessed as CD44+CD24+ marker cells at 1.25 uM measured after 30 hrs by FITC/APC staining based flow cytometry (reference value: […]); assay type: functional
B16-F10 [4] = assay: Anticancer activity against mouse B16-F10 cancer stem cells assessed as CD44+CD24+ marker cells at […] measured after 30 hrs by FITC/APC staining based flow cytometry (reference value: […]); assay type: functional; settings: dose 2.5 µM
B16-F10 [5] = assay: Anticancer activity against mouse B16-F10 cancer stem cells assessed as CD44+CD24+ marker cells at 5 uM measured after 30 hrs by FITC/APC staining based flow cytometry (reference value: […]); assay type: functional
A-375 [6] = assay: Anticancer activity against human A-375 cancer stem cells assessed as CD44+CD133+ marker cells at 1.25 uM measured after 30 hrs by FITC/APC staining based flow cytometry (reference value: […]); assay type: functional
A-375 [7] = assay: Anticancer activity against human A-375 cancer stem cells assessed as CD44+CD133+ marker cells at […] measured after 30 hrs by FITC/APC staining based flow cytometry (reference value: […]); assay type: functional; settings: dose 2.5 µM
A-375 [8] = assay: Anticancer activity against human A-375 cancer stem cells assessed as CD44+CD133+ marker cells at 5 uM measured after 30 hrs by FITC/APC staining based flow cytometry (reference value: […]); assay type: functional
B16-F10 [9] = assay: Induction of morphological changes in mouse B16-F10 cells assessed as formation of apoptotic bodies at 0.5 to […] measured after 48 hrs by AnnexinV-FITC/propidium iodide staining based flow cytometry; assay type: functional, cell-based; settings: dose 0.5-2.5 µM
B16-F10 [10] = assay: Induction of secondary necrosis in mouse B16-F10 cells at 0.5 to […] measured after 48 hrs by AnnexinV-FITC/propidium iodide staining based flow cytometry; assay type: functional, cell-based; settings: dose 0.5-2.5 µM
[11] = Cmax in Sprague-Dawley rat at 50 mg/kg, po by LC-MS/MS analysis; assay type: ADME, organism-based; set-up: dose 50 mg/kg, route po; settings: in vivo
[12] = Tmax in Sprague-Dawley rat at 50 mg/kg, po by LC-MS/MS analysis; assay type: ADME, organism-based; settings: in vivo
[13] = Half life in Sprague-Dawley rat at 50 mg/kg, po by LC-MS/MS analysis; assay type: ADME, organism-based; settings: in vivo
[14] = MRT (0 to t) in Sprague-Dawley rat at 50 mg/kg, po by LC-MS/MS analysis; assay type: ADME, organism-based; settings: in vivo
[15] = Oral bioavailability in Sprague-Dawley rat at 50 mg/kg by LC-MS/MS analysis; assay type: ADME, organism-based; settings: in vivo
[16] = Cmax in Sprague-Dawley rat at 20 mg/kg, iv by LC-MS/MS analysis; assay type: ADME, organism-based; set-up: dose 20 mg/kg, route iv; settings: in vivo
[17] = Tmax in Sprague-Dawley rat at 20 mg/kg, iv by LC-MS/MS analysis; assay type: ADME, organism-based; settings: in vivo
[18] = Half life in Sprague-Dawley rat at 20 mg/kg, iv by LC-MS/MS analysis; assay type: ADME, organism-based; settings: in vivo
[19] = MRT (0 to t) in Sprague-Dawley rat at 20 mg/kg, iv by LC-MS/MS analysis; assay type: ADME, organism-based; settings: in vivo

## C=C[C@]1(C)C[C@@H](OC(=O)CO)[C@]2(C)[C@H](C)CC[C@]3(CCC(=O)[C@H]32)[C@@H](C)[C@@H]1O [PLEUROMULIN]
B16-F10 [1]
  IC50: > 100 µM
A-375 [2]
  IC50: > 100 µM
4T1
  IC50: > 100 µM
Staphylococcus aureus
  MIC: 10 µg/mL (≈ 26.4 µM)
Escherichia coli
  MIC: 50 µg/mL (≈ 132 µM)
Bacillus subtilis
  MIC: 100 µg/mL (≈ 264 µM)
Kasumi 1
  IC50: > 100 µM
CT26
  IC50: > 100 µM
HCT-116
  IC50: > 100 µM

## CC(=O)O[C@H]1C(=O)[C@@]2(C)[C@H]([C@H](OC(=O)c3ccccc3)[C@]3(O)C[C@H](OC(=O)[C@H](O)[C@@H](NC(=O)c4ccccc4)c4ccccc4)C(C)=C1C3(C)C)[C@]1(OC(C)=O)CO[C@@H]1C[C@@H]2O [PACLITAXEL]
B16-F10 [3]
  Activity: 11.3%
B16-F10 [4]
  Activity: 12.5%
B16-F10 [5]
  Activity: 24%
A-375 [6]
  Activity: 18.1%
A-375 [7]
  Activity: 19.3%
A-375 [8]
  Activity: 20%

## C=C[C@]1(C)C[C@@H](O)[C@]2(C)[C@H](C)CC[C@]3(CC(=C)C(=O)[C@H]32)[C@@H](C)[C@@H]1OC(=O)Cc1ccc(F)cc1
B16-F10 [1]
  IC50: 2.31 µM
A-375 [2]
  IC50: 5.73 µM
4T1
  IC50: > 10 µM
Kasumi 1
  IC50: 2.45 µM
CT26
  IC50: > 10 µM
HCT-116
  IC50: 9.37 µM

## COc1cccc2c1C(=O)c1c(O)c3c(c(O)c1C2=O)C[C@@](O)(C(=O)CO)C[C@@H]3O[C@H]1C[C@H](N)[C@H](O)[C@H](C)O1
B16-F10 [9]
  Activity: Active
B16-F10 [10]
  Activity: Active

## C=C[C@]1(C)C[C@@H](OC(=O)c2ccc(C(F)(F)F)cn2)[C@]2(C)[C@H](C)CC[C@]3(CC(=C)C(=O)[C@H]32)[C@@H](C)[C@@H]1OC(=O)c1ccc(C(F)(F)F)cn1
[11]
  Cmax: 3650 ng/mL
[12]
  Tmax: 2.67 h
[13]
  half-life: 6.54 h
[14]
  MRT last: 4.71 h
[15]
  bioavailability: 88%
[16]
  Cmax: 3400 ng/mL
[17]
  Tmax: 4.98 min
[18]
  half-life: 1.33 h
[19]
  MRT last: 2.91 h
